Test system: albino Wistar rats
Assay: Acute oral toxicity study (OECD Guidelines 423)
Assay type: in vivo
Conditions: for Bilirubin / Bilverdin / CAT / MDA / PC / Reduced GSH / SOD: liver; for Bilirubin / Bilverdin / CAT / MDA / PC / Reduced GSH / SOD / AST / ALT: normal rats, mean±SD, n=6; for AST / ALT: plasma
Method: Acute oral toxicity study of M1 was performed as per revised Organization for Economic Cooperation and Development Guidelines 423. Animal Ethical Committee approved this study (Approval No. SDCOP&VS/AH/CPCSE01/017/R2). M1 was dissolved in 0.25% carboxymethyl cellulose (CMC) and administered orally at the dose of 25, 50, 100, 250 mg/kg body weight to albino Wistar rats for 4 weeks (n = 6) and the animals were observed every day for any toxic manifestations.

COc1cc2c(cc1OC)CC(C(=O)O)NC2 (stereo not shown) [M1, 6,7-dimethoxy-1,2,3,4-tetrahydro-isoquinoline-3-carboxylic acid]
changes in ALT, AST, bilirubin, biliverdin, SOD, CAT, PC, GSH, TBARS as compared with normal control (M1 dose ranging from 25 to 250 mg/kg orally): no significant changes | Bilirubin (M1 25 mg/kg orally): 19.24±1.27 ng/µg of protein | Bilverdin (M1 25 mg/kg orally): 7.15±0.78 ng/µg of protein | CAT (M1 25 mg/kg orally): 8.22 ± 1.91 nM of H2O2 /min/μg of protein | MDA (M1 25 mg/kg orally): 9.25 ± 2.87 nM/μg of protein | PC (M1 25 mg/kg orally): 0.68 ± 0.17 µM/μg of protein | Reduced GSH (M1 25 mg/kg orally): 4.94 ± 1.17 µM/μg of protein | SOD (M1 25 mg/kg orally): 14.27 ± 2.88 U/μg of protein | Bilirubin (M1 50 mg/kg orally): 19.11±3.19 ng/µg of protein | Bilverdin (M1 50 mg/kg orally): 5.99±1.04 ng/µg of protein | CAT (M1 50 mg/kg orally): 6.94 ± 2.06 nM of H2O2 /min/μg of protein | MDA (M1 50 mg/kg orally): 10.11 ± 0.96 nM/μg of protein | PC (M1 50 mg/kg orally): 0.62 ± 0.05 µM/μg of protein | Reduced GSH (M1 50 mg/kg orally): 5.42 ± 1.34 µM/μg of protein | SOD (M1 50 mg/kg orally): 9.78 ± 1.17 U/μg of protein | Bilirubin (M1 100 mg/kg orally): 18.24±2.55 ng/µg of protein | Bilverdin (M1 100 mg/kg orally): 7.62±1.45 ng/µg of protein | CAT (M1 100 mg/kg orally): 8.45 ± 1.59 nM of H2O2 /min/μg of protein | MDA (M1 100 mg/kg orally): 11.22 ± 1.91 nM/μg of protein | PC (M1 100 mg/kg orally): 0.49 ± 0.07 µM/μg of protein | Reduced GSH (M1 100 mg/kg orally): 5.78 ± 1.65 µM/μg of protein | SOD (M1 100 mg/kg orally): 8.97 ± 1.95 U/μg of protein | Bilirubin (M1 250 mg/kg orally): 20.13±2.56 ng/µg of protein | Bilverdin (M1 250 mg/kg orally): 7.91±0.99 ng/µg of protein | CAT (M1 250 mg/kg orally): 7.38 ± 1.28 nM of H2O2 /min/μg of protein | MDA (M1 250 mg/kg orally): 12.33 ± 2.17 nM/μg of protein | PC (M1 250 mg/kg orally): 0.48 ± 0.08 µM/μg of protein | Reduced GSH (M1 250 mg/kg orally): 6.22 ± 1.07 µM/μg of protein | SOD (M1 250 mg/kg orally): 9.12 ± 1.65 U/μg of protein | safe dose (oral, albino Wistar rats, 4 weeks): up to 250 mg/kg body weight | AST (M1 25 mg/kg orally): 11.33 ± 3.67 U/L | ALT (M1 50 mg/kg orally): 33.16± 4.22 U/L | AST (M1 50 mg/kg orally): 11.90 ± 1.69 U/L | ALT (M1 100 mg/kg orally): 33.24 ± 1.57 U/L | AST (M1 100 mg/kg orally): 14.33 ± 1.28 U/L | ALT (M1 250 mg/kg orally): 35.11 ± 2.84 U/L | AST (M1 250 mg/kg orally): 14.92 ± 3.52 U/L
